Experimental data published in patent publication US8604016B2, “Heterocyclic inhibitors of glutaminase” (Calithera Biosciences Inc., priority 2011, dated 2013).

Legend:
[1] = target: recombinant form of Glutaminase 1 (GAC) (Homo sapiens, UniProt O94925); test: Recombinant Enzyme Assay (GAC coupled to GDH, NADH absorbance, no preincubation); type: biochemical; settings: no preincubation; read-out: GAC Delta N2 IC50 no preinc
How it was run: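 GAC (4 nM) in Tris-HCl pH 8.0 with 150 mM K2HPO4, EDTA, BSA, DTT, plus 4 units/ml GDH and 4 mM ADP, without preincubation. Absorbance at 340 nm was read kinetically for 15 min at 20° C. Slopes (mAU/min) were compared with DMSO-only and control-compound wells on the same plate.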

[2] = tested on: HCT116 colon carcinoma xenograft; test: Xenograft Efficacy Studies (HCT116 colon carcinoma xenograft); type: in vivo, scid/bg mice; settings: intraperitoneal administration twice daily to mice, FIG. 1
Experimental: Certain compounds were assayed for in vivo efficacy in xenograft models as follows.
Female scid/bg mice, approximately 6 weeks of age, were implanted subcutaneously on the right flank with 5×10^6 HCT116 cells per mouse in a volume of 100 uL of sterile PBS. When tumors reached a volume of 50-100 mm^3, mice were randomized to groups of n=10 to receive either vehicle or test compound delivered twice daily by intraperitoneal injection. Tumors were measured three times per week using Vernier calipers and tumor volume calculated using the formula: Volume=(Length×Width^2/2), where length and width are the longest perpendicular sides of the tumor. Dosing continued twice daily until control tumors reached a size of 2000 mm^3. Statistical comparisons were made using a 2-way ANOVA with Bonferroni post-test.

- IC50 [1]: 2000 nM
SMILES: O=C(CCN1CCOCC1)OCC(C(=O)Nc1nnc(CCCCc2nnc(NC(=O)C(COC(=O)CCN3CCOCC3)c3ccccc3)s2)s1)c1ccccc1 (centres unmarked) [Compound 188, {[5,5′-(butane-1,4-diyl)-bis(1,3,4-thiadiazole-5,2-diyl)]-bis(azanediyl)}-bis(3-oxo-2-phenylpropane-3,1-diyl)-bis(3-morpholinopropanoate)]
- tumor size [2]: reduced tumor size
